Test results reported in patent publication US11667602B2, “Compounds and their use” (AstraZeneca AB, priority 2020, dated 2023).
In brackets after ≈: the same amount, converted by molar mass.

Columns and labels:
[1] = Human Liver Microsomal Stability (Test C); format: in vitro ADME; details: human, liver microsomes
Outline: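 Human liver microsome incubation per the Wernevik et al. integrated DMPK panel protocol. Intrinsic clearance reported as CLint in μl/min/mg protein, averaged arithmetically over repeat runs.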

human RXFP1 = molecular target: T1, human RXFP1 (Homo sapiens, UniProt Q9HBX9); assay: RXFP1 Hu cAMP (Test A); format: cell-based; design: expressed in transfected cells; host or cells: Jump-In T-REx CHO-K1 cells (ThermoFisher), induced with 10 ng/ml doxycycline for 24 h; details: RXFP1 Hu cAMP; for EC50: read-out: Test A EC50
T1 sequence (Q9HBX9 1-757): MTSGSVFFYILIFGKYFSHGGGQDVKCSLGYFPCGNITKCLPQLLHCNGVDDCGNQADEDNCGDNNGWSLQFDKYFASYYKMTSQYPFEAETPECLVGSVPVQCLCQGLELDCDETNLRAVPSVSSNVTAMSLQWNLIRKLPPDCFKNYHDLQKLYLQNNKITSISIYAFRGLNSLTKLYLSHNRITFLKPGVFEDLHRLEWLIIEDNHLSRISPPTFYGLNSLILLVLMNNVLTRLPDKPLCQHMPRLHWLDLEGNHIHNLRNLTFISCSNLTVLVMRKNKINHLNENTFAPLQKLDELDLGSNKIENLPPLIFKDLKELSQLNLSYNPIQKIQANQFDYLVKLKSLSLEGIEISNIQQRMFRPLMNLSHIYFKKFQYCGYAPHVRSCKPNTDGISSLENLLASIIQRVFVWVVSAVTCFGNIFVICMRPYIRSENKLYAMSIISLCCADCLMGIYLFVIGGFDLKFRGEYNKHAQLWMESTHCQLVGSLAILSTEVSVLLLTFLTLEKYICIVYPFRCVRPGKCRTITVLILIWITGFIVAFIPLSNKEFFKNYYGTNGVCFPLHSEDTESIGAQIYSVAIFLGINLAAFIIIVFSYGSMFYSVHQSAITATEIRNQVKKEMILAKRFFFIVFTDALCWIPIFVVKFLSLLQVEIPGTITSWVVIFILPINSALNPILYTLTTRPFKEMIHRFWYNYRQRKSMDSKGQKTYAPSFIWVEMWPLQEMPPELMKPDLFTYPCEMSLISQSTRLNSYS
Outline: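 CHO-K1 (Jump-In T-REx), RXFP1 induced w/ 10 ng/ml doxycycline 24 h, cryopreserved. 0.5 mM IBMX final. cAMP by HTRF, 2 h RT, std curve.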

Solubility (Test F) = format: physicochemical; details: arithmetic mean if run multiple times
Procedure: The assay was conducted according to the Solubility Assay described in pages 164-167 of Wernevik, J. et al., “A Fully Integrated Assay Panel for Early Drug Metabolism and Pharmacokinetics Profiling”, Assay and Drug Development Technologies, 2020, 18(4), 157-179. Data are reported in Table 36 as solubility ([…]. Where the assay was run multiple times for the same compound, the arithmetic mean is reported.

[2] = Human Hepatocyte Stability (Test D); format: in vitro ADME; details: human, cryopreserved pooled human hepatocytes (LiverPool 10-Donor), geometric mean if run multiple times
Procedure: Human Hepatocyte Stability (Test D)
The metabolic stability of compounds in human hepatocytes was assessed using the following protocol:
1. Prepare 10 mM stock solutions of compound and control compounds in appropriate solvent (DMSO). Place incubation medium (L-15 Medium) in a 37° C. water bath, and allow warming for at least 15 minutes prior to use.
2. Add 80 μL of acetonitrile to each well of the 96-well deep well plate (“Quenching plate”).
3. In a new 96-well plate, dilute the 10 mM test compounds and the control compounds to 100 μM by combining 198 μL of acetonitrile and 2 μL of 10 mM stock solution.
4. Remove a vial of cryopreserved (less than −150° C.) human hepatocytes (LiverPool™ 10-Donor Human hepatocytes obtained from Bioreclamation IVT (Product No. S01205)) from storage, ensuring that vials remain at cryogenic temperatures until thawing process ensues. As quickly as possible, thaw the cells by placing the vial in a 37° C. water bath and gently shaking the vials. Vials should remain in water bath until all ice crystals have dissolved and are no longer visible. After thawing is complete, spray vial with 70% ethanol, transfer the vial to a bio-safety cabinet.
5. Open the vial and pour the contents into the 50 mL conical tube containing thawing medium. Place the 50 mL conical tube into a centrifuge and spin at 100 g for 10 minutes (room temperature).
6. Using Cellometer® Vision, count cells and determine the viable cell density. Cells with poor viability (<80% viability) are not acceptable for use.
7. Transfer 247.5 μL of hepatocytes into each well of a 96-well cell incubation plate. Place the plate on Eppendorf Thermomixer Comfort plate shaker to allow the hepatocytes to warm for 10 minutes.
8. Add 2.5 μL of 100 μM test compound or control compounds into an incubation well containing cells to initiate the reaction.
9. Incubate the plate at 37° C. and 900 rpm on an Eppendorf Thermomixer Comfort plate shaker.
10. Centrifuge the quenching plates for 20 minutes at 4,000 rpm. Transfer 30 μL of supernatant of each compound into a 96-well analysis plate. 4 compounds are pooled together into one cassette. Then dilute the pooled sample by adding of 180 μl of pure water. All incubations are performed in singlicate.
All calculations were carried out using Microsoft Excel. Peak areas were determined from extracted ion chromatograms. In vitro intrinsic clearance (in vitro Clint, in μL/min/10^6 cells) of parent compound was determined by regression analysis of the Ln percent parent disappearance vs. time curve. The in vitro intrinsic clearance (in vitro Clint, in μL/min/10^6 cells) reported in Table 36, and was determined from the slope value using the following equation: in vitro Clint=kV/N
V=incubation volume (0.25 mL);
N=number of hepatocytes per well (0.25×10^6 cells)
Where the assay was run multiple times for the same compound, the geometric mean is reported.

[3] = Rat Hepatocyte Stability (Test E); format: in vitro ADME; details: rat, hepatocytes, geometric mean if run multiple times
Outline: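 Run per the published AstraZeneca-type rat hepatocyte stability protocol (Wernevik et al. panel). Values are mean intrinsic clearance, Clint in μl/min/10^6 cells; geometric mean used for repeated runs.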

[4] = Human Plasma Protein Binding (Test B); format: in vitro ADME; details: fraction unbound (fu)
Outline: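 Human plasma protein binding run per the published Wernevik et al. (2020) integrated DMPK panel protocol. Values are fraction unbound (fu, % free); repeat runs averaged arithmetically.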

SMILES	microsomal CLint [1] [µL/min/mg]	Test A Sinf (human RXFP1) [%]	EC50 (human RXFP1) [nM]	solubility (Solubility (Test F)) [µM]	hepatocyte CLint at 1 µM [2] [µL/min/1e6 cells]	hepatocyte CLint [3] [µL/min/1e6 cells]	Test B Human Plasma Protein Binding (% free) [4] [% free]
COc1cc(F)c(O[C@H]2CC[C@@](C)(C(=O)O)CC2)cc1C(=O)N[C@@H]1CCC[C@@H]1C(=O)N[C@H](C)C(C)(C)C [Example 65, (1S,4s)-4-(5-(((1R,2S)-2-(((R)-3,3-Dimethylbutan-2-yl)carbamoyl)cyclopentyl)carbamoyl)-2-fluoro-4-methoxyphenoxy)-1-methylcyclohexane-1-carboxylic acid]	5.5	99	160	> 1000	3.1	9.7	
COc1cc(F)c(-c2cnc(CCC(=O)O)cn2)cc1C(=O)N[C@@H]1[C@H]2CC[C@H](C2)[C@@H]1C(=O)Nc1cccc(S(=O)(=O)C(F)(F)F)c1 [Example 238]	42	102	140	890 (≈ 592 µg/mL)	13	27	
COc1cc(F)c(O[C@H]2CC[C@@H](C(=O)O)CC2)cc1C(=O)N[C@@H]1[C@H]2CC[C@H](C2)[C@@H]1C(=O)N[C@@H](C)C(C)(C)C [Example 199]	26	100	21000	1000 (≈ 533 µg/mL)	2.6	20	
COc1cc(F)c(O[C@H]2CC[C@@H](C(=O)O)CC2)cc1C(=O)N[C@@H]1[C@H]2CC[C@H](C2)[C@@H]1C(=O)Nc1ccc(S(=O)(=O)C(F)(F)F)cc1 [Example 15, (1S,4s)-4-(2-Fluoro-4-methoxy-5-(((1S,2R,3S,4R)-3-((4-((trifluoromethyl)sulfonyl)phenyl)carbamoyl)bicyclo[2.2.1]heptan-2-yl)carbamoyl)phenoxy)cyclohexane-1-carboxylic acid]	14	94	420	390 (≈ 256 µg/mL)		13	1.3
COc1cc(C#N)c(O[C@H]2CC[C@@](C)(C(=O)O)CC2)cc1C(=O)N[C@@H]1[C@H]2CC[C@H](C2)[C@@H]1C(=O)NCC(=O)NC(C)C [Example 85]	< 3		> 9400	920 (≈ 523 µg/mL)		15	50

Next, values leading:

microsomal CLint [1] [µL/min/mg]	Test A Sinf (human RXFP1) [%]	EC50 (human RXFP1) [nM]	solubility (Solubility (Test F)) [µM]	hepatocyte CLint at 1 µM [2] [µL/min/1e6 cells]	hepatocyte CLint [3] [µL/min/1e6 cells]	Test B Human Plasma Protein Binding (% free) [4] [% free]	SMILES
14	104	50	190 (≈ 124 µg/mL)	9.5	12		COc1cc(F)c(-c2ccc(C(=O)O)c(O)c2)cc1C(=O)N[C@@H]1[C@H]2CC[C@H](C2)[C@@H]1C(=O)Nc1cccc(S(=O)(=O)C(F)(F)F)c1 [Example 247]
110	109	200	900 (≈ 597 µg/mL)	26	30		COc1cc(F)c(-c2ccc(CCC(=O)O)cn2)cc1C(=O)N[C@@H]1[C@H]2CC[C@H](C2)[C@@H]1C(=O)Nc1cccc(S(=O)(=O)C(F)(F)F)c1 [Example 242]
12	104		880 (≈ 606 µg/mL)	4.2	25		COc1cc(F)c(O[C@H]2CC[C@@](C)(C(=O)O)CC2)cc1C(=O)NC1C(C(=O)Nc2cccc(S(=O)(=O)C(F)(F)F)c2)CC2OCOC21 (single isomer, unassigned) [Example 512, (1R,4s)-4-(2-Fluoro-4-methoxy-5-(((3aR*,4S*,5S*,6aS*)-5-((3-((trifluoromethyl)sulfonyl)phenyl)carbamoyl)tetrahydro-4H-cyclopenta[d][1,3]dioxol-4-yl)carbamoyl)phenoxy)-1-methylcyclohexane-1-carboxylic acid]
7.5	100	190	980 (≈ 687 µg/mL)	2.9	7.4		COc1cc(F)c(O[C@H]2CC[C@@H](C(=O)O)CC2)cc1C(=O)N[C@@H]1[C@@H]2C[C@@H]([C@H]3OCO[C@@H]23)[C@@H]1C(=O)Nc1cccc(S(=O)(=O)C(F)(F)F)c1 [Example 461, (1S,4s)-4-(2-Fluoro-4-methoxy-5-(((3aS,4S,5R,6S,7R,7aR)-6-((3-((trifluoromethyl)sulfonyl)phenyl)carbamoyl)hexahydro-4,7-methanobenzo[d][1,3]dioxol-5-yl)carbamoyl)phenoxy)cyclohexane-1-carboxylic acid]
64	109	18	590 (≈ 380 µg/mL)	15	46		COc1cc(F)c(O[C@H]2CC[C@@](C)(C(=O)O)CC2)cc1C(=O)N[C@@H]1CCC[C@@H]1C(=O)Nc1cccc(S(=O)(=O)C(F)(F)F)c1 [Example 351]
9.9	103	320	> 1000		10	1.2	COc1cc(F)c(O[C@H]2CC[C@@](F)(C(=O)O)CC2)cc1C(=O)N[C@@H]1[C@H]2CC[C@H](C2)[C@@H]1C(=O)Nc1cccc(S(=O)(=O)C(F)(F)F)c1 [Example 416]
15	127	310	700 (≈ 440 µg/mL)		68	0.93	COc1cc(F)c(OCCCCC(=O)O)cc1C(=O)N[C@H]1[C@@H](C(=O)Nc2cccc(S(=O)(=O)C(F)(F)F)c2)[C@@H]2C=C[C@H]1C2 (racemic) [Example 451]
12	99	140	550 (≈ 366 µg/mL)		12	0.69	COc1cc(F)c(-c2ccc(OCC(=O)O)nc2)cc1C(=O)N[C@@H]1[C@H]2CC[C@H](C2)[C@@H]1C(=O)Nc1cccc(S(=O)(=O)C(F)(F)F)c1 [Example 241]
